For 35 compounds, IC50 results are on record in patent publication US11873291B2, “Quinoline cGAS antagonist compounds” (ImmuneSensor Therapeutics, Inc., priority 2020, dated 2024).

In experiment [1] the target is T1, recombinant human cGAS (aa147-522) (Homo sapiens, UniProt Q8N884).
T1 construct: recombinant human cGAS (aa147-522); His6-SUMO (cleaved yes); made in house; host or cells: E. coli BL21/pLys
Description: In vitro inhibition assay of cGAS activity (ATP consumption, KinaseGlo Max). The settings on record: Table 3, read-out: cGAS Inhibition Results IC50. It counts as biochemical. Summed up: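 De-tagged recombinant human cGAS (aa147-522, 1.5 μg/mL) was incubated 20 min at 37 °C with herring testis DNA, 6.6 μM ATP and 0.1 mM GTP in Tris pH 7.5/MgCl2 buffer plus serial compound dilutions. Remaining ATP was read by KinaseGlo Max luminescence, and IC50 was fitted from % ATP consumption versus log concentration.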

The subject of experiment [2] is cGAS activity in Reporter THP1 cell line. The experiment in a line: Cellular assay to measure cGAS activity: ISRE-Gaussia luciferase reporter THP1 cells transfected with ISD. The experiment is classed as cell-based. Conditions: Homo sapiens. Summed up: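 THP1 ISRE-Gaussia luciferase reporter cells (0.3×10^6/well) pre-incubated 5 min with compound serial dilutions, then lipofectamine-transfected with 2 μg/mL ISD (45 bp DNA) or mock. Secreted luciferase read 16 h later with 1 μM coelenterazine at pH 6.5; IC50 from fold increase over mock. Specificity counter-screen used 2 μg/mL poly(I:C) or Sendai virus 50 Unit/mL.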
In general terms: Reporter assays use an easily measured gene product as a stand-in for the process of interest.

[3] abbreviates: THP-1, Table 4, Gaussia luciferase.
[4] abbreviates: THP-1, untitled table after Table 4 (continuation).

Structures are written as SMILES.

T1 sequence (Q8N884 147-522): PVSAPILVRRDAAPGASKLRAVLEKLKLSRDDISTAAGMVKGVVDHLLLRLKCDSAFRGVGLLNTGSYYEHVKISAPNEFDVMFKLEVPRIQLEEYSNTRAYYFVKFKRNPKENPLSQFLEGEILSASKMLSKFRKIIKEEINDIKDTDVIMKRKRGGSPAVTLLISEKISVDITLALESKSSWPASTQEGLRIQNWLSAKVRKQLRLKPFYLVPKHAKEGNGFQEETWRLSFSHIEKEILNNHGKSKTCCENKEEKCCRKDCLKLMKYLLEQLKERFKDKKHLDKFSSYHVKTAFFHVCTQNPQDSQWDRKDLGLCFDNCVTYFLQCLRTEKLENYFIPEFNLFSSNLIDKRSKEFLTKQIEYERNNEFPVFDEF

With `O=C(O)C(F)COC[C@@H]1CCCN1c1cc(-n2ccnc2)c2ccc(Cl)c(Cl)c2n1` (stereo partly drawn) [I-716, 3-(((S)-1-(7,8-dichloro-4-(1H-imidazol-1-yl)quinolin-2-yl)pyrrolidin-2-yl)methoxy)-2-fluoropropanoic acid], the half-maximal inhibitory concentration (IC50) is below 2000 nM in experiment [1] and above 10000 nM in experiment [2] (setting [3]).

For the compound `CC(CC(=O)O)OC[C@@H]1CCCN1c1cc(-n2ccnc2)c2ccc(Cl)c(Cl)c2n1` (stereo partly shown) [I-717], the IC50 in experiment [1] and in experiment [2] (setting [3]) was below 2000 nM in each case.

Regarding `COC(=O)CC(C)OC[C@@H]1CCCN1c1cc(-n2ccnc2)c2ccc(Cl)c(Cl)c2n1` (stereo partly shown) [I-718], the IC50 in experiment [1] was 2000 to 30000 nM; in experiment [2] (setting [3]) it was below 2000 nM.

`CC(COC[C@@H]1CCCN1c1cc(-n2ccnc2)c2ccc(Cl)c(Cl)c2n1)C(=O)O` (stereo partly shown) [I-719]: the IC50 in experiment [1] and in experiment [2] (setting [3]) was below 2000 nM each time.

On to `COC(=O)C(C)COC[C@@H]1CCCN1c1cc(-n2ccnc2)c2ccc(Cl)c(Cl)c2n1` (stereo partly shown) [I-720], for which the figures for the IC50 in experiment [1] and in experiment [2] (setting [3]) were 2000 to 30000 nM and below 2000 nM, respectively.

Turning to `O=C(O)CCO[C@@H]([C@@H]1CCCN1c1cc(-n2ccnc2)c2ccc(Cl)c(Cl)c2n1)C(F)(F)F` [I-722], the IC50 in experiment [1] is below 2000 nM; in experiment [2] (setting [3]), 2000 to 10000 nM.

Consider `O=C(O)C1CC(OC[C@@H]2CCCN2c2cc(-n3ccnc3)c3ccc(Cl)c(Cl)c3n2)C1` (stereo partly shown) [I-723], for which the IC50 in experiment [1] is below 2000 nM; in experiment [2] (setting [3]) it was 2000 to 10000 nM.

As for `O=C(O)CCOC[C@H](O)[C@@H]1CCCN1c1cc(-n2ccnc2)c2ccc(Cl)c(Cl)c2n1` [I-724, 3-((R)-2-((S)-1-(7,8-dichloro-4-(1H-imidazol-1-yl)quinolin-2-yl)pyrrolidin-2-yl)-2-hydroxyethoxy)propanoic acid], the values for the IC50 in experiment [1] and in experiment [2] (setting [3]) were below 2000 nM and 2000 to 10000 nM, respectively.

On to `O=C(O)COC[C@@H](O)[C@@H]1CCCN1c1cc(-n2ccnc2)c2ccc(Cl)c(Cl)c2n1` [I-725, 2-((S)-2-((S)-1-(7,8-dichloro-4-(1H-imidazol-1-yl)quinolin-2-yl)pyrrolidin-2-yl)-2-hydroxyethoxy)acetic acid], for which the IC50 is below 2000 nM in experiment [1] and above 10000 nM in experiment [2] (setting [3]).

With `O=C(O)COC[C@H](O)[C@@H]1CCCN1c1cc(-n2ccnc2)c2ccc(Cl)c(Cl)c2n1` [I-726, 2-((R)-2-((S)-1-(7,8-dichloro-4-(1H-imidazol-1-yl)quinolin-2-yl)pyrrolidin-2-yl)-2-hydroxyethoxy)acetic acid], the results for the IC50 in experiment [1] and in experiment [2] (setting [3]) were below 2000 nM and above 10000 nM, respectively.

In the case of `O=C(O)c1cnn(C[C@@H]2CCCN2c2cc(-n3ccnc3)c3ccc(Cl)c(Cl)c3n2)c1` [I-728], the values for the IC50 in experiment [1] and in experiment [2] (setting [3]) were below 2000 nM and 2000 to 10000 nM, respectively.

`O=C(O)c1cnn(CC[C@@H]2CCCN2c2cc(-n3ccnc3)c3ccc(Cl)c(Cl)c3n2)c1` [I-730]: the results for the half-inhibitory concentration (IC50) in experiment [1] and in experiment [2] (setting [3]) were below 2000 nM and 2000 to 10000 nM, respectively.

As to `O=C(O)c1ccn(C[C@@H]2CCCN2c2cc(-n3ccnc3)c3ccc(Cl)c(Cl)c3n2)c1` [I-732], the IC50 in experiment [1] and in experiment [2] (setting [3]) was below 2000 nM in each case.

In the case of `O=C(O)c1ccccc1OC[C@@H]1CCCN1c1cc(-n2ccnc2)c2ccc(Cl)c(Cl)c2n1` [I-733], the IC50 in experiment [1] and in experiment [2] (setting [3]) was below 2000 nM in each case.

Consider `O=C(O)Cc1ccccc1OC[C@@H]1CCCN1c1cc(-n2ccnc2)c2ccc(Cl)c(Cl)c2n1` [I-734], for which the IC50 in experiment [1] and in experiment [2] (setting [3]) was below 2000 nM throughout.

Take `O=C(O)c1cccc(OC[C@@H]2CCCN2c2cc(-n3ccnc3)c3ccc(Cl)c(Cl)c3n2)c1` [I-735, (S)-3-((1-(7,8-dichloro-4-(1H-imidazol-1-yl)quinolin-2-yl)pyrrolidin-2-yl)methoxy)benzoic acid]: the IC50 in experiment [1] is below 2000 nM; in experiment [2] (setting [3]) it was 2000 to 10000 nM.

Regarding `O=C(O)Cc1cccc(OC[C@@H]2CCCN2c2cc(-n3ccnc3)c3ccc(Cl)c(Cl)c3n2)c1` [I-736], the half-maximal inhibitory concentration (IC50) in experiment [1] and in experiment [2] (setting [3]) was below 2000 nM in each case.

Turning to `O=C(O)CCCC1CCCN(c2cc(-n3ccnc3)c3ccc(Cl)c(Cl)c3n2)C1` (stereo not shown) [I-739], the IC50 in experiment [1] and in experiment [2] (setting [3]) was below 2000 nM throughout.

As to `O=C(O)COC[C@@H]1CN(c2cc(-c3cn[nH]c3)c3ccc(Cl)c(Cl)c3n2)CCO1` [I-740], the 50% inhibitory concentration (IC50) was below 2000 nM in experiment [1] and above 10000 nM in experiment [2] (setting [3]).

For `O=C(O)CCOC[C@@H]1CN(c2cc(-c3cn[nH]c3)c3ccc(Cl)c(Cl)c3n2)CCO1` [I-741], the IC50 is below 2000 nM in experiment [1] and 2000 to 10000 nM in experiment [2] (setting [3]).

On to `O=C(O)COC[C@@H]1CN(c2cc(-n3ccnc3)c3ccc(Cl)c(Cl)c3n2)CCO1` [I-742], for which the half-inhibitory concentration (IC50) in experiment [1] was below 2000 nM; in experiment [2] (setting [3]) it was above 10000 nM.

Turning to `O=C(O)COC[C@H]1CCCN(c2cc(-n3ccnc3)c3ccc(Cl)c(Cl)c3n2)C1` [I-743], the half-maximal inhibitory concentration (IC50) in experiment [1] and in experiment [2] (setting [3]) was below 2000 nM throughout.

Turning to `O=C(O)COC[C@@H]1CCCN(c2cc(-n3ccnc3)c3ccc(Cl)c(Cl)c3n2)C1` [I-744], the IC50 in experiment [1] and in experiment [2] (setting [3]) was below 2000 nM in each case.

Regarding `O=C(O)CCOC[C@H]1CCCN(c2cc(-n3ccnc3)c3ccc(Cl)c(Cl)c3n2)C1` [I-745], the IC50 in experiment [1] and in experiment [2] (setting [3]) was below 2000 nM in each case.

As to `O=C(O)CCOC[C@@H]1CCCN(c2cc(-c3cn[nH]c3)c3ccc(Cl)c(Cl)c3n2)C1` [I-747], the IC50 in experiment [1] and in experiment [2] (setting [3]) was below 2000 nM throughout.

Regarding `O=C(O)CCOCC1CC(O)CN(c2cc(-n3ccnc3)c3ccc(Cl)c(Cl)c3n2)C1` (stereo not shown) [I-748], the IC50 in experiment [1] was below 2000 nM; in experiment [2] (setting [3]) it was above 10000 nM.

As for `O=C(O)CCOCC1CC(F)CN(c2cc(-n3ccnc3)c3ccc(Cl)c(Cl)c3n2)C1` (stereo not shown) [I-749], the IC50 in experiment [1] and in experiment [2] (setting [3]) was below 2000 nM each time.

As for `O=C(O)CCOC[C@@H]1CCCN(c2cc(-n3ccnc3)c3ccc(Cl)c(Cl)c3n2)C1` [I-750], the IC50 in experiment [1] and in experiment [2] (setting [3]) was below 2000 nM in each case.

On to `COC(=O)COC[C@@H]1CN(c2cc(-c3cn[nH]c3)c3ccc(Cl)c(Cl)c3n2)CCO1` [I-751], for which the IC50 was below 2000 nM in experiment [1] and 2000 to 10000 nM in experiment [2] (setting [3]).

Take `COC(=O)CCOC[C@@H]1CN(c2cc(-c3cn[nH]c3)c3ccc(Cl)c(Cl)c3n2)CCO1` [I-752]: the IC50 was below 2000 nM in experiment [1] and above 10000 nM in experiment [2] (setting [3]).

On to `COC(=O)CCNC[C@@H]1CCCN1c1cc(-n2ccnc2)c2ccc(Cl)c(Cl)c2n1` [I-753, methyl (S)-3-(((1-(7,8-dichloro-4-(1H-imidazol-1-yl)quinolin-2-yl)pyrrolidin-2-yl)methyl)amino)propanoate], for which the IC50 in experiment [1] was above 30000 nM; in experiment [2] (setting [3]), above 10000 nM.

`COC(=O)CCN(C)C[C@@H]1CCCN1c1cc(-n2ccnc2)c2ccc(Cl)c(Cl)c2n1` [I-755, methyl (S)-3-(((1-(7,8-dichloro-4-(1H-imidazol-1-yl)quinolin-2-yl)pyrrolidin-2-yl)methyl)(methyl)amino)propanoate]: the IC50 was above 30000 nM in experiment [1] and above 10000 nM in experiment [2] (setting [4]).

For `O=C(O)CCNC[C@@H]1CCCN1c1cc(-n2ccnc2)c2ccc(Cl)c(Cl)c2n1` [I-756, (5)-3-(((1-(7,8-dichloro-4-(1H-imidazol-1-yl)quinolin-2-yl)pyrrolidin-2-yl)methyl)amino)propanoic acid], the figures for the IC50 in experiment [1] and in experiment [2] (setting [4]) were 2000 to 30000 nM and above 10000 nM, respectively.

In the case of `COC(=O)CCC(=O)NNc1cc(-n2ccnc2)c2ccc(Cl)c(Cl)c2n1` [I-758], the values for the IC50 in experiment [1] and in experiment [2] (setting [4]) were 2000 to 30000 nM and above 10000 nM, respectively.

For `O=C(O)CCC(=O)NNc1cc(-n2ccnc2)c2ccc(Cl)c(Cl)c2n1` [I-759], the IC50 in experiment [1] is below 2000 nM; in experiment [2] (setting [4]) it was above 10000 nM.

What is called IC50 is the concentration needed to halve the response being measured.
